In patent US4447607A, “Dibenzo diazacines” (The Upjohn Company, priority 1982, dated 1984):

Assays:
[1] = target: T1, TXA2 synthetase (Homo sapiens, UniProt P24557); test: TXA2 inhibition test: TXA2 generated from PGH2 with human platelet microsomes, response of superfused rabbit aortic strips; assay type: biochemical; settings: rabbit aorta response
T1 construct: human platelet microsomes (HPM); from tissue; host or cells: human platelet microsomes
T1 sequence (P24557 1-533): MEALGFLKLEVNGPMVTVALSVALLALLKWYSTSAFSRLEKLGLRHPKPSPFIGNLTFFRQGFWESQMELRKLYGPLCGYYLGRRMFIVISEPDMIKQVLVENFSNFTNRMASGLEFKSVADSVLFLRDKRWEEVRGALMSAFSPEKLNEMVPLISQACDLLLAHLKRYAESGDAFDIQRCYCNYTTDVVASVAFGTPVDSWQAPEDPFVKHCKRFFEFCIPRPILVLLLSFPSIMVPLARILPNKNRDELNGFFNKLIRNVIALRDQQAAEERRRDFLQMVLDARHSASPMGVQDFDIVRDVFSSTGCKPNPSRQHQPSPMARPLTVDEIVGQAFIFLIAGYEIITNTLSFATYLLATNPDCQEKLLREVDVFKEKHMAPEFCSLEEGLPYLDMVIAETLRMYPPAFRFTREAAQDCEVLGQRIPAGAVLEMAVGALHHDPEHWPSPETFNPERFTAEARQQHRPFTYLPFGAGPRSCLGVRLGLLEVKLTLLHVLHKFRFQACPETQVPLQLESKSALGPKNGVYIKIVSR
Method: The compounds of the present invention were tested for TXA2 inhibition as follows:
Rabbit aortic strips were superfused in series with Krebs solution. Thromboxane A2 (TXA2) was generated by mixing prostaglandin H2 (PGH2) with human platelet microsomes (HPM).
Potential inhibitors were tested by comparing the response of the rabbit aorta to the amount of TXA2 produced by mixing PGH2 and HPM without the test compound in the reaction medium and then the amount of TXA2 produced when the test compound was added to the HPM 5 minutes before the HPM was mixed with PGH2. […] For a discussion of TXA2 synthetase inhibition testing see, e.g., R. Gorman, supra.

[2] = system: thromboxane synthetase; settings: prior art compounds, as noted in British patent specification; cited from earlier work

Row | Compound | effectiveness in inhibiting TXA2 formation (in words) [1] | inhibitory activity on thromboxane synthetase (in words) [2]
1 | c1cncc(-c2ccc3c(c2)CN2CN3Cc3cc(-c4cccnc4)ccc32)c1 [Example 1, 2,8-Di(3-pyridyl)-6H,12H-5,11-methanodibenzo[b,f][1,5]diazocine] | most effective | –
2 | sodium p-benzyl-4(1-oxo-2-(4-chlorobenzyl)-3-phenylpropyl)phenyl phosphate | – | very weak
3 | CCCCCC=CC[C@@H](C=CC=CCC=CCCCC(=O)O)OO [12L-hydroperoxy-5,8,10,14-eicosatetraenoic acid] | – | very weak
4 | CC(Cc1ccc(O)c(O)c1)C(C)Cc1ccc(O)c(O)c1 (stereo not shown) [nordihydroguaiaretic acid] | – | very weak
